Assay results as given in US20190240187A1, “ORAL PREPARATIONS WITH OMEPRAZOLE OR PANTOPRAZOLE” (SYMRISE AG, priority 2015, published 2019).

Test: Bitter masking test: aqueous omeprazole solutions tasted by a panel in duo comparison tests
Format: in vivo
Conditions: 500 ppm omeprazole; for Masking effect on the bitterness of omeprazole (in words): 100 ppm additive
From the text: To test the bitter masking effect, aqueous solutions, each containing 500 ppm omeprazole
(V1) alone or together (1) with 100 ppm eriodyctiol (ED) or (2) with 100 ppm homoeriodyctiol sodium salt (HE) or (3) with 100 ppm eriodyctiol+100 ppm homoeriodyctiol sodium salt or (V4) with 100 ppm 4′-fluoro-6-methoxyflavanone as a reference substance that has no masking effect, were tasted. Solutions 2-5 were each tasted by an experienced panel of 20-30 testers in a randomized order against solution 1 in duo comparison tests and the bitterness of each sample was estimated on a scale of 0 to 100.

Compound	Masking effect on the bitterness of omeprazole (in words)	Bitterness (mean panel estimate (20-30 testers) on a scale of 0 to 100, aqueous solution, additives 100 ppm each)
COc1cc(C2CC(=O)c3c(O)cc(O)cc3O2)ccc1O (stereo not drawn) [HE, 5-7-dihydroxy-2-(4-hydroxy-3-methoxyphenyl)-4-chronnanone]	act on their own as masking agents	–
O=C1CC(c2ccc(O)c(O)c2)Oc2cc(O)cc(O)c21 (stereo not drawn) [ED, 2-(3,4-dihydroxyphenyl)-5,7-dihydroxy-4-chronnanone]	act on their own as masking agents	–
COc1ccc2[nH]c([S+]([O-])Cc3ncc(C)c(OC)c3C)nc2c1 (racemic) [Example V1, (RS)-5-methoxy-2-[(4-methoxy-3,5-dimethylpyridin-2-yl)methanesulfinyl]-1H-benzoinnidazole, reference compound]	–	80
